Experimental data: the Kinase Knowledgebase extract (Sharma et al. 2016)

Tests used:
[1] = biological target: PIK3CG (human) (UniProt P48736); assay: Assessment of PIK3CG Kinase Activity
[2] = biological target: PIK3CA (human) (UniProt P42336); assay: Assessment of PIK3CA Kinase Activity
Chain of PIK3CA (human) (P42336 whole entry, looked up): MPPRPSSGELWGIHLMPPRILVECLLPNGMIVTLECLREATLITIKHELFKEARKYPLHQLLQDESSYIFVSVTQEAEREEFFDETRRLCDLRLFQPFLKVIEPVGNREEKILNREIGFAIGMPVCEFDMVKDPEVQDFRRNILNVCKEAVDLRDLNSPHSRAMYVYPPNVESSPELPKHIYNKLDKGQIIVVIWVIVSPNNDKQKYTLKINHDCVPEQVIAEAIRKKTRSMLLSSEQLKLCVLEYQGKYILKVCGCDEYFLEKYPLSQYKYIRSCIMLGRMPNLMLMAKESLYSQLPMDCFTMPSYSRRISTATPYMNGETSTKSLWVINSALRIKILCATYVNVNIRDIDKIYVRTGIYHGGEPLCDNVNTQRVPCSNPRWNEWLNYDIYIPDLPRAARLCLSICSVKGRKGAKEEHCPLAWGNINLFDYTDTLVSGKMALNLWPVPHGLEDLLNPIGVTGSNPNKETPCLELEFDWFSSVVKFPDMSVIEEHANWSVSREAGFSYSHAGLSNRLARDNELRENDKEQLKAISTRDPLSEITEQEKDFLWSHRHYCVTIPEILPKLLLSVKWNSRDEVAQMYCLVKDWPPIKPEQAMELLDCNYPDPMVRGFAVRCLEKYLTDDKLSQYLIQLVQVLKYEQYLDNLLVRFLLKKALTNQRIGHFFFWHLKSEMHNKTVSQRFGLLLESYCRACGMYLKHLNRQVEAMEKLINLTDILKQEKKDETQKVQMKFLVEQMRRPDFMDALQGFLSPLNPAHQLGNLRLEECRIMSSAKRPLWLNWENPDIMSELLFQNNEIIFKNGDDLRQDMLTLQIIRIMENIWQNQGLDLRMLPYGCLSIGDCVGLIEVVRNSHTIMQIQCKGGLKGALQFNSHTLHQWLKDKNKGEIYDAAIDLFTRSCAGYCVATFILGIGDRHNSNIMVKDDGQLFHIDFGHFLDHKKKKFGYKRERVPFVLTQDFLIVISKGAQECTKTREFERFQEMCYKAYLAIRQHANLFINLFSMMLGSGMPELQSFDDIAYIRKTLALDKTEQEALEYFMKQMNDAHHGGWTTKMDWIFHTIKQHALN

Chain of PIK3CG (human) (P48736 whole entry, looked up): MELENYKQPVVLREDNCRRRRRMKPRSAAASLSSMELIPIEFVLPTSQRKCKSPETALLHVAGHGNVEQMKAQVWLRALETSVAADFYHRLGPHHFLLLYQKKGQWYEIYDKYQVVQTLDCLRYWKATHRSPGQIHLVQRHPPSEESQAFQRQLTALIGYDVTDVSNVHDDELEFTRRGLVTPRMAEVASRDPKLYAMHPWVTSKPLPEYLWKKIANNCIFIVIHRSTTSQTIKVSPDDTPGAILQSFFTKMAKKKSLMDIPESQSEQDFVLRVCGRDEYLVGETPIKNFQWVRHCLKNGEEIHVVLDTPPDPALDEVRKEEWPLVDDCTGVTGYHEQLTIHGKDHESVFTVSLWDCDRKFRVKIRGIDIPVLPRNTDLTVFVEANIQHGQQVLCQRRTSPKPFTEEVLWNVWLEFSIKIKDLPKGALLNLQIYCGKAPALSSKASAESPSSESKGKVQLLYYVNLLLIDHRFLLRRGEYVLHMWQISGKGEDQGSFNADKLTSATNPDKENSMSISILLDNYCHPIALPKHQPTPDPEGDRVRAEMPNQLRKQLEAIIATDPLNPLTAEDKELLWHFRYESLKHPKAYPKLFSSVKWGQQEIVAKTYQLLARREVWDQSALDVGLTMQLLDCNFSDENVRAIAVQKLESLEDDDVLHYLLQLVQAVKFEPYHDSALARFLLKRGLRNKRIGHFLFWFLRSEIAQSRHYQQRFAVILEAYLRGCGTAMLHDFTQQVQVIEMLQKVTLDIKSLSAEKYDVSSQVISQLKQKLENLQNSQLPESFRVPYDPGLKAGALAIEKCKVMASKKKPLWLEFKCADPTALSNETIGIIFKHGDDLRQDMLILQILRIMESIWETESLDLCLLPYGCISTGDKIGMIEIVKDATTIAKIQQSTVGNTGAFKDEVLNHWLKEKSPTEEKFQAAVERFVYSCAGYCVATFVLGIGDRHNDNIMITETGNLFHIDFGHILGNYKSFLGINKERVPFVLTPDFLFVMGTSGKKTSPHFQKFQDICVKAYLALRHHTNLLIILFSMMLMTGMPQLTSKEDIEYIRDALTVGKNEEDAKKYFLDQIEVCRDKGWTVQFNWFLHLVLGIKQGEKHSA

SMILES | IC50 [1] [nM] | IC50 [2] [nM]
O=C(NCCO)Nc1ccc(-c2nc(N3CC4CCC(C3)O4)c3sccc3n2)cc1 | 10000 | 
O=C(Nc1ccncc1)Nc1ccc(-c2nc(N3CC4CCC(C3)O4)c3cnn([C@H]4CC[C@]5(CCCO5)CC4)c3n2)cc1 | 2220 | 
CCn1ncc2c(N3CC4CCC(C3)O4)nc(-c3ccc(NC(=O)NC(=O)CCNCCN(C)C)cc3)nc21 | 8110 | 1830
CC(=O)Nc1ccc(NC(=O)Nc2ccc(-c3nc(N4CC5CCC(C4)O5)c4cnn(C)c4n3)cc2)cc1 | 2720 | 1050
O=C(Nc1ccc(-c2nc(N3CC4CCC(C3)O4)c3sccc3n2)cc1)NC1CC1 | 10000 | 

The next compounds have a lower IC50 [1] than those just listed; values first:

IC50 [1] [nM] | IC50 [2] [nM] | SMILES
1410 | 346 | CN(C)CC(=O)Nc1ccc(NC(=O)Nc2ccc(-c3nc(N4CC5CCC(C4)O5)c4cnn(C)c4n3)cc2)cc1
825 |  | COC1CCC(n2ncc3c(N4CC5CCC(C4)O5)nc(-c4ccc(NC(=O)Nc5ccncc5)cc4)nc32)CC1 (stereo not given)
494 | 311 | CCn1ncc2c(N3CC4CCC(C3)O4)nc(-c3ccc(NC(=O)NC(=O)CNCCN(C)C)cc3)nc21
1450 |  | CN1CCN(c2ccc(NC(=O)Nc3ccc(-c4nc(N5CC6CCC(C5)O6)c5cnn([C@H]6CC[C@]7(CCCO7)CC6)c5n4)cc3)cc2)CC1
2020 |  | O=C(Nc1ccc(-c2nc(N3CC4CCC(C3)O4)c3cnn([C@H]4CC[C@]5(CCCO5)CC4)c3n2)cc1)Nc1ccc(N2CCNCC2)cc1
2060 |  | O=C(Nc1ccc(-c2nc(N3CC4CCC(C3)O4)c3cnn([C@H]4CC[C@]5(CCCO5)CC4)c3n2)cc1)OCCO
